PMC7244523, “A Cell-based Screen in Actinomyces oris to Identify Sortase Inhibitors” (Scientific Reports, 2020)
In brackets after ≈: the same amount, converted by molar mass.

What was measured:
[1] = test system: A. oris MG-1 (wild-type) versus ΔsrtA/ΔgspA strain; assay: High-throughput cell-based growth screen and counter-screen (differential growth); parameters: species or system Actinomyces oris; details: differential effect on wild-type MG-1 and ΔgspAΔsrtA strains in the HTS; 10 µM, in duplicate; 100 = extreme difference, 0 = none
Experimental: In the primary screen, a total of 200,834 small molecules were tested for their ability to impair A. oris MG-1 growth. Cells were added to an optical density (OD600) of 0.01 in media containing 10 µM of each molecule, followed by a 15 hour incubation at 37 °C and end-point OD600 measurement. The growth effect of each molecule was normalized and expressed as a percent growth relative to the DMSO-only control (see Methods). A total of 1,904 molecules were classified as preliminary hits (0.95% of the molecules tested), as they reduced MG-1 growth after 15 hours by at least 34%, or 2.75 standard deviations below the average. The preliminary hits were then subjected to a counter-screen in which their growth effects on ΔsrtA/ΔgspA were determined. In order to eliminate potentially erroneously identified preliminary hits, the counter-screen and preliminary screen was performed in duplicate for the 1,904 preliminary hit molecules. A molecule was deemed as a hit if it caused greater than 15% differential growth effect in duplicate when the MG-1 and ΔsrtA/ΔgspA strains were compared. […] Data is plotted as the percentage of growth inhibition for each molecule (see Methods).
A total of 200,834 small molecule compounds (Molecular Screening Shared Resource, UCLA) were dissolved in 100% Omnisolv methylsulfoxide (MilliporeSigma MX1456P-6) and stored in 384-well polypropylene plates. Actinomyces oris MG-1 and ΔgspAΔsrtA were streaked out on BHI agar plates containing 50 µg/mL kanamycin and grown at 37 °C for 48 hours to allow single colonies to grow. Cultures were started from 2–3 colonies in BHI with 50 µg/mL kanamycin and allowed to grow until an OD600 between 0.1–0.4. Meanwhile, 384-well plates were filled with 25 µL BHI broth with 100 µg mL^−1 kanamycin (columns 1–22) or 200 µg mL^−1 Penicillin G (positive control, columns 23–24). Five hundred nanoliters of small molecules were transferred into the media (columns 3–22) using the Biomex FX^P automated work station with a 384-well pin tool. Precultures were diluted to an OD600 of 0.02 in 1 L BHI broth without antibiotics. Twenty five microliters of cell culture was immediately aliquoted into plates containing 25 µL media, antibiotics, and small-molecules using a Multidrop (Thermo LabSystems), resulting in 50 µg mL^−1 kanamycin and 10 µM small molecules with 1% DMSO or 100 µg mL^−1 Penicillin G. Plates were immediately lidded and placed into a humidified Cytomat 6001 incubator at 37 °C and allowed to grow for 15.5 hours. Following incubation, plates were removed from the Cytomat using a Thermo Spinnaker robotic arm on a rail, de-lidded, and placed into an EnVision high-speed plate reader for optical density measurement at 620 nm.
Raw data obtained from the screen was formatted in-house to upload to the Collaborative Drug Discovery Vault (www.collaborativedrug.com). Individual optical density readings were converted to a percent growth value ([ODsample-ODPositive control]/[ODNegative Control Average- ODPositive control]) and percent growth inhibition (1-percent growth). The Z-factors for the individual molecules were determined. Molecules with a Z-factor less than or equal to -2.75 were considered preliminary hits to advance forward a generous collection of preliminary hit molecules. Five microliters of each of the 1904 preliminary hit molecules were re-arrayed into new 384-well polypropylene plates. Each of the 1904 preliminary hits were assayed against both the MG-1 and ΔgspAΔsrtA strains in duplicate, on two separate days. Percent difference of growth was calculated according to the equation 100–100[(ODMG-1, Sample-ODMG-1, Positive Control)/ODΔgspAΔsrtA, Sample-ODΔgspAΔsrtA, Positive Control)]/[(ODMG-1, Average-ODMG-1, Positive Control)/ODΔgspAΔsrtA, Average-ODΔgspAΔsrtA, Positive Control)]. […] Molecules were ranked according to their relative growth.

A. oris MG-1 = assay: Minimum inhibitory concentration, MG-1 strain; assay type: cell-based; details: Actinomyces oris, MG1; BHI, 96-well plates, 18 hours
Experimental: (§1) Two validation assays were performed for each hit molecule that measured: (i) the minimum inhibitory concentration (MIC) required to prevent growth of the MG-1 and ΔsrtA/ΔgspA strains, and (ii) their in vitro inhibitory activity against the enzymatic activity of the A. oris and S. aureus sortase enzymes. Initially, the selective growth effect originally observed in the HTS that used 384-well plates was more rigorously defined by determining each molecule’s MIC value for the MG-1 and ΔsrtA/ΔgspA strains. Cells were cultured in 100 µL media containing 2-fold dilutions of each small molecule between 320 µM and 0.039 µM (approximately 134 µg mL^−1 to […]).
(§2) Minimum inhibitory concentration (MIC) values were determined for molecules 1–6 according to the Clinical Laboratory Standard Institutes’ (CLSI) Methods for Dilution Antimicrobial Susceptibility Tests for Bacteria that Grow Aerobically, Approved standards-ninth edition; M07-A9 Vol. 32 No. 2 with the following alterations. Overnight cultures of MG-1 and ΔgspAΔsrtA were diluted to OD600 values of 0.01 before being added to BHI containing the appropriate molecule in 96-well plates. Mueller-Hinton broth was not usable because A. oris is a fastidious bacterium. Plates were sealed with Breatheasy seals and incubated for 18 hours, as A. oris has a doubling time of 2 hours. Plate seals were removed and OD600 values measured. Each plate was run with a positive control (cells, media, and Penicillin G), negative control (media and cells only), and contamination control (media only).

A. oris ΔgspAΔsrtA = assay: Minimum inhibitory concentration, ΔgspA/ΔsrtA strain; assay type: cell-based, Actinomyces oris; details: BHI, 96-well plates, 18 hours
Experimental: as §1, §2

AoSrtA = AoSrtA (Actinomyces oris, UniProt A0A0X8K1J2); assay: FRET-based in vitro sortase activity assay, AoSrtA; assay type: biochemical; details: for Inhibition of AoSrtA in vitro: FRET assay
Sequence of AoSrtA (A0A0X8K1J2 entry or part of it): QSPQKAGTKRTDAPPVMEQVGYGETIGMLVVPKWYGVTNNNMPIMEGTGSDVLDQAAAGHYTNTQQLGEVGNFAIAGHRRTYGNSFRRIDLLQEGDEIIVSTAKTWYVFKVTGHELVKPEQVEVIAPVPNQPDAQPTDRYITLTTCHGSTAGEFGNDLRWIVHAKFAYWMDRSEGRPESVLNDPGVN
Experimental: (§3) The ability of the hit molecules to inhibit sortase activity was measured in vitro using an established FRET-based assay[13] that measures the ability of each enzyme to cleave a fluorogenic peptide substrate; Abz-LAQTG-Dap(Dnp)-NH2 and Abz-LPETG-Dap(Dnp)-NH2, substrates for ^AoSrtA and ^SaSrtA, respectively. Each enzyme cleaves between the threonine and glycine bond in these peptides, leading to a measurable increase in fluorescence (see Methods). The IC50 value of each compound was determined for both the ^AoSrtA and ^SaSrtA enzymes.
(§4) IC50 values for the six hit molecules against the ^AoSrtA and ^SaSrtA enzymes were determined as previously described, with some modifications. Briefly, molecules 1–6 were serial diluted 2-fold (from 1.25 mM to 2.44 µM, 500 µM to 0.98 µM final assay concentration) into 25 µM ^AoSrtA or ^SaSrtA (final assay concentration 10 µM) in buffer A (20 mM HEPES pH 7, 5 mM CaCl2, 0.05% TWEEN, 30% DMSO). The final DMSO concentration was […] in the assay. Samples were incubated 1 hour at room temperature and aliquoted into a 384-well plate (EK-30892). Thirty microliters of FRET peptide (Peptide 2.0) in buffer B (20 mM HEPES pH 7, 5 mM CaCl2, 0.05% TWEEN), […] for ^SaSrtA or Abz-LAQTG-Dap(Dnp)-NH2 for ^AoSrtA was added and the plate was immediately placed into a Flexstation II plate reader (Molecular Devices) and fluorescence was recorded at 335/420 nm excitation/emission wavelengths after 5 seconds of plate shaking to mix the reaction components. Plate fluorescence was measured over the course of 30 minutes.

SaSrtA = SaSrtA (Staphylococcus aureus, UniProt Q2FV99); assay: FRET-based in vitro sortase activity assay, SaSrtA; assay type: biochemical
Sequence of SaSrtA (Q2FV99 whole entry): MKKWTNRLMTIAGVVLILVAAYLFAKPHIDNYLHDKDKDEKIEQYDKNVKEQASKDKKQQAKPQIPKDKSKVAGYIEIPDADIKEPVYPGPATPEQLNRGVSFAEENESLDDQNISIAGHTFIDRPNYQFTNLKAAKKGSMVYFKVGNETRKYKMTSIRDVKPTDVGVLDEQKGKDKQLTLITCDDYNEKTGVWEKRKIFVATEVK
Experimental: as §3, §4

A. oris ΔgspA = assay: Cell fractionation and immunoblot with α-FimA (type 2 pilus); assay type: cell-based, Actinomyces oris; details: 10 µM, 3 hours, ΔgspA strain, versus control
Experimental: To understand the physiological effects that these molecules have on the display of pili and surface proteins on the surface of A. oris, we grew cells with 10 µM of each hit molecule and assessed sortase activity by western blot and electron microscopy as previously reported. To avoid a confounding problem that inhibiting ^AoSrtA causes cell arrest, we performed the experiments in a mutant devoid of gspA; the aforementioned genetic suppressor of sortase lethality.
(§5) Cell fractionation and Western blotting were followed according to a published protocol. Briefly, the cultures of A. oris strains grown in BHI at 37 °C until OD600 of 0.25 were aliquoted, and bacterial aliquots were treated with 10 µM of individual sortase inhibitors for 3 hours. Bacterial cultures were then normalized to equal OD600, and cells were fractionated into culture medium (S), cell wall (W), and protoplast fractions. Isolated fractions were subjected to protein precipitation by 7.5% trichloroacetic acid, followed by washing with cold acetone, except for the protoplast fractions. Protein samples were dissolved in hot sodium dodecyl sulfate (SDS)-containing sample buffer, separated by 3–12% Tris-glycine gradient gels, and subjected to immunoblotting with specific antisera (α-FimA, 1:10,000 dilution; α-GspA, α-MdbA, α-SrtC2 and α-SrtA, 1:4000 dilution), followed by chemo-luminescence detection.

A. oris ΔlcpA = assay: Cell fractionation and immunoblot with α-GspA (cell wall anchoring of GspA); assay type: cell-based, Actinomyces oris; details: 10 µM, ΔlcpA strain; for GspA polymers (immunoblot α-GspA): 3 hours; for GspA display / cell wall associated GspA: Fig. 4B
Experimental: (§6) To examine if these molecules inhibit cell wall anchoring of surface proteins (e.g. GspA), we similarly treated cells devoid of lcpA, i.e. ΔlcpA, another suppressor of srtA[46]. […] To corroborate these observations, we subjected A. oris cells of ΔgspA and Δlcp strains to 10 μM of each molecule (3, 4 and 6) and studied pilus display with transmission electron microscopy (TEM), whereby A. oris cells were immobilized on nickel grids and stained with 1% uranyl acetate prior to viewing by an electron microscope.
as §5

[2] = test system: A. oris ΔgspA and ΔlcpA strains; assay: Pilus display by transmission electron microscopy; assay type: cell-based, Actinomyces oris; details: 10 μM; for Pilus assembly at the cell pole (TEM): ΔgspA or ΔlcpA strain, versus untreated control; for Pili display (TEM): ΔgspA strain, Fig. 5A–D
Experimental: as §6
To observe cell morphology by negative staining, A. oris cells harvested after inhibitor treatment were washed once with PBS and suspended in 0.1 M NaCl. A drop of 7 µL of bacterial suspension was placed onto carbon-coated nickel grids and stained with 1% uranyl acetate. Samples were examined using a JEOL JEM1200.

[3] = IC50 (A. oris), AoSrtA 10 µM, Abz-LAQTG-Dap(Dnp)-NH2, 1 hour preincubation
[4] = IC50 values, range over compounds, range for both AoSrtA and SaSrtA, in µM

| Compound | Differential Growth [1] [%] | MIC (A. oris MG-1) [µg/mL] | MIC (ΔgspA/ΔsrtA) (A. oris ΔgspAΔsrtA) [µg/mL] | Inhibition of AoSrtA in vitro (AoSrtA) | IC50 (AoSrtA; [3]) [µM] | IC50 (SaSrtA) [µM] | IC50 (AoSrtA; [4]) [µM] | FimA polymers / type 2 pilus production (immunoblot α-FimA) (A. oris ΔgspA) | GspA polymers (immunoblot α-GspA) (A. oris ΔlcpA) | GspA display / cell wall associated GspA (A. oris ΔlcpA) | Pilus assembly at the cell pole (TEM) [2] | Pili display (TEM) [2] |
| --- | --- | --- | --- | --- | --- | --- | --- | --- | --- | --- | --- | --- |
| Cc1ccc(S(=O)(=O)Cc2nc3cc(-c4ccccc4)sc3c(=O)[nH]2)cc1 [Compound 1] | 65.7 ± 0.5 | 2 (≈ 5.04 µM) | 4.0 (≈ 10.1 µM) | failed to inhibit | > 479 | 202 |  |  |  |  |  |  |
| Cc1cc(NS(=O)(=O)c2ccc(C(C)(C)C)cc2)n(C2CCS(=O)(=O)C2)n1 (stereo not drawn) [Compound 2] | 96.2 ± 0.3 | 0.5 (≈ 1.21 µM) | 2.1 (≈ 5.1 µM) | failed to inhibit | > 486 | > 486 |  |  |  |  |  |  |
| CCc1ccc2nc(N(Cc3cccnc3)C(=O)c3ccc([N+](=O)[O-])o3)sc2c1 [Compound 3] | 17.5 ± 3.5 | 8.2 (≈ 20.1 µM) | >130 |  | 73.5 | 220 | 73 to 170 | decreased FimA polymers | no GspA polymers were observed | decreased amounts of cell wall associated GspA | significant reduction of pilus assembly at the cell pole | completely absent |
| COc1ccc2nc(N(Cc3ccccc3)C(=O)c3ccc([N+](=O)[O-])o3)sc2c1 [Compound 4] | 38.5 ± 0.5 | 16.4 (≈ 40.1 µM) | >130 |  | 171 | 488 | 73 to 170 | decreased FimA polymers | no GspA polymers were observed | decreased amounts of cell wall associated GspA | significant reduction of pilus assembly at the cell pole | diminished |
| O=C(c1cc(-c2ccc(F)cc2)n[nH]1)N1CC(c2nc(-c3ccccc3)no2)C1 [Compound 5] | 96.2 ± 0.3 | 1 (≈ 2.57 µM) | 2.0 (≈ 5.14 µM) | failed to inhibit | > 488 | 282 |  |  |  |  |  |  |
| Cc1nc(COc2ccc(F)cc2)sc1CC(=O)Nc1nc2c(s1)CC(C)CC2 (stereo not drawn) [Compound 6] | 71.8 ± 16.5 | 2.1 (≈ 4.87 µM) | 8.4 (≈ 19.5 µM) |  | 139 | 125 | 73 to 170 | little effect on type 2 pilus production | no GspA polymers were observed | significantly diminishes GspA display | significant reduction of pilus assembly at the cell pole | only modestly effects pili display |
